Experimental data taken from patent US9320682B2, “Tooth filling materials and dental varnish for inhibiting the formation of a biofilm of Streptococcus mutans and the production thereof” (VOCO Gmbh, priority 2012, dated 2016).

Tests used:
Assay type in all cases: cell-based
[1] = tested on: Streptococcus mutans UA159; test: Colony-forming units of Streptococcus mutans biofilm after treatment with solutions of active substances (Example 8); conditions: for reduction in the colony-forming units: active substance in solution, final concentrations 0.25 μg/ml and 2.5 μg/ml, 20 hours anaerobic at 37° C.; for antimicrobial action in relation to Streptococcus mutans: solutions of the active substances at specific low concentrations (Example 8)
Experimental: In a THB nutrition medium, an over-night culture of Streptococcus mutans UA159 was cultivated anaerobically. That over-night culture was diluted to an optimum density (at 620 nm; OD620) of from 0.01 to 0.03 with THB (with addition of 0.5% (GN) of saccharose) so that a dilute bacterial suspension was obtained.
(§1) Stock solutions and corresponding diluted solutions of chlorohexidine, triclosan and carolacton were produced in methanol. […] of those solutions to be tested were introduced by pipette into microtitration plates; 9 parallel wells were used per substance and concentration. The methanol was evaporated (under a hood) and then 200 μl of the dilute bacterial suspension were added. The final concentrations of the active substances in the 200 μl of bacterial suspension were 0.25 μg/ml and 2.5 μg/ml. The plates were incubated anaerobically at 37° C. without agitation for 20 hours. Subsequently, the excess was removed by pipette, the biofilm was washed with a physiological cooking salt solution (0.85% of NaCl) and the biofilm was scraped off with a pipette. The biofilms from three parallel wells were suspended in 500 μl of PBS. From that biofilm suspension, a serial dilution in PBS was prepared. After each dilution step, vortexing was carried out for 1 minute. From each dilution, 50 μl was distributed three times on agar plates (TH medium). The plates were incubated for three days in the CO2 cupboard at 37° C., then the colony-forming units (CFU) were counted and the bacteria density in relation to […] of biofilm suspension was calculated.

[2] = tested on: Streptococcus mutans UA159; test: Colony-forming units in the biofilm on tooth filling material test members (Example 9); conditions: triclosan and chlorohexidine at a hundred times the concentration of carolacton
Experimental: as §1
(§2) In addition, three tooth filling materials similar to example 2 were prepared, where carolacton was replaced with triclosan in a first comparison admixture, carolacton was replaced with chlorohexidine in a second comparison admixture and carolacton was omitted in a third comparison admixture (control).
(§3) From each of the tooth filling materials produced, by hardening the tooth filling material 10 dental test members were produced with a diameter of 7 mm and a height of 1 mm and adhesively bonded with a small quantity of the tooth filling material in a total of 40 wells of a 96-well microtitration plate of polystyrene (Greiner Bio-One, μ Clear Plate Black, Frickenhausen, Germany).
In a THB nutrition medium, an over-night culture of Streptococcus mutans UA159 was produced under anaerobic conditions. […]

[3] = tested on: Streptococcus mutans UA159; test: Biofilm inhibition on hardened tooth filling material test members, LIVE/DEAD BacLight fluorescence (Example 9); conditions: for biofilm inhibition (in words): active substance in hardened tooth filling material, carolacton 25 μg/ml, triclosan and chlorohexidine 2500 μg/ml
Experimental: The admixture from example 2 was used as the tooth filling material according to the invention.
as §2, §3
In a THB nutrition medium, an over-night culture of Streptococcus mutans UA159 was produced under anaerobic conditions. The over-night culture obtained was diluted to an optimum density (at 620 nm; OD620) of from 0.01 to 0.03 with THB (with addition of 0.5% (G/V) of saccharose). Subsequently, 200 μl of the dilute over-night culture was introduced by pipette into the wells of the 96-well microtitration plate provided with the dental test members. The microtitration plate was subsequently incubated for 20 hours at 37° C. under anaerobic conditions in an incubator.
The determination of the biofilm inhibition was carried out with a LIVE/DEAD BacLight kit L13152 (Invitrogen, Molecular Probes, Inc. Eugene, Oreg., USA), taking note of the manufacturer's instructions. The kit comprises two dye solutions, propidium iodide and SYT09 which each discolour nucleic acids. The excesses of the biofilms in the individual wells of the 96-well microtitration plate were removed. In order to remove plankton-like or loosely bonded bacteria, the biofilm was carefully washed with 200 μl of a 0.85% NaCl solution, mixed with 200 μl of a 1:1 admixture of propidium iodide and SYT09 and subsequently left to stand for 15 minutes and at ambient temperature with light being excluded. The measurement of the fluorescence was carried out on a Wallac Victor3™ 1420Multilabel Counter (Perkin-Elmer Life Sciences) provided with detectors and filters for measuring the fluorescence at 630 nm (red) and 535 nm (green). The biofilm inhibition is given in percent as a quotient between the quotient of green and red fluorescence of the sample with the active substance (carolacton, chlorohexidine or triclosan) and the quotient of green and red fluorescence of the sample without any active substance (control).

Compound | reduction in the colony-forming units [1] | antimicrobial action in relation to Streptococcus mutans [1] | effect on number of CFU in the biofilm (in words) [2] | Biofilm inhibition [%] ([3]; active substance 2500 μg/ml in hardened tooth filling material similar to example 2, 20 hours, green/red fluorescence quotient vs control) | biofilm inhibition (in words) [3] | inhibition at 2500 µg/mL ([3]; Streptococcus mutans, UA159, 20 h, read-out: Biofilm inhibition [%]) [%] | inhibition at 25 µg/mL ([3]; Streptococcus mutans, UA159, active substance 25 μg/ml in hardened tooth filling material of example 2, 20 hours, green/red fluorescence quotient vs control) [%]
N=C(NCCCCCCNC(=N)NC(=N)Nc1ccc(Cl)cc1)NC(=N)Nc1ccc(Cl)cc1 [chlorohexidine] | very powerful reduction in the colony-forming units | very powerful antimicrobial activity | neither triclosan nor chlorohexidine, although used at a hundred times the concentration of carolacton, results in a powerful reduction of the number of CFU | 1 | scarcely influence the biofilm formation |  | 
Oc1cc(Cl)ccc1Oc1ccc(Cl)cc1Cl [triclosan] | very powerful reduction in the colony-forming units | very powerful antimicrobial activity | neither triclosan nor chlorohexidine, although used at a hundred times the concentration of carolacton, results in a powerful reduction of the number of CFU |  | scarcely influence the biofilm formation | 1 | 
COC(CC(=O)O)C(C)C(=O)C(C)/C=C(\C)C1OC(=O)C(O)C(O)/C=C/C(C)CCCC1C (stereo not drawn) [carolacton] | merely weakly reduces the number of colony-forming units | only has a weak antimicrobial action | powerful inhibiting effect |  | very good biofilm inhibition |  | 51
